Source: patent US20240246964A1 (Arbutus Biopharma Corporation, priority 2021, published 2024)

Tests used:
[1] = target: PD-L1 His protein / PD-1 Fc protein (Homo sapiens (Human), UniProt Q9NZQ7); test: HTRF Assay (PD-1/PD-L1 interaction); type: binding; conditions: PD-L1 His 6 nM, PD-1 Fc 6 nM
human PD-L1 = human PD-L1 (Homo sapiens (Human), UniProt Q9NZQ7); test: T cell activation luciferase reporter cell culture system (T Cell Activation Assay); type: cell-based; conditions: luciferase reporter assay; PD-L1 aAPC/CHO-K1 cells with PD-1 effector Jurkat T cells
human PD-L1, sequence (Q9NZQ7 19-290): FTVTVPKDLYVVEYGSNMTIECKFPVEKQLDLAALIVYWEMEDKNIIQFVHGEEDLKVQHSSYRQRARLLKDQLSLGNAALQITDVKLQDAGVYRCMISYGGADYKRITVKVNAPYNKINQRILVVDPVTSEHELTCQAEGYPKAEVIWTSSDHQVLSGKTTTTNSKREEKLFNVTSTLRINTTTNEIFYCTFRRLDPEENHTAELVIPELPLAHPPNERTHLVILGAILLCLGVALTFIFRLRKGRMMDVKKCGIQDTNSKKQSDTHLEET

PD-L1 His protein / PD-1 Fc protein, sequence (Q9NZQ7 19-238): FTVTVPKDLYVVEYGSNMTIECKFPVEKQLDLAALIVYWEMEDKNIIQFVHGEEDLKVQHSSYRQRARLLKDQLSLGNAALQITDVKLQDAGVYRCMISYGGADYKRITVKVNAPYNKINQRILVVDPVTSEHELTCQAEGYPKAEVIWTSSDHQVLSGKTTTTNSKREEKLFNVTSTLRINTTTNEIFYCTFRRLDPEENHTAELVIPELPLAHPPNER

COc1cc(-c2nccc(-c3cccc(-c4ccc5c(CNC6CCC(F)(F)CC6)cn(C)c5n4)c3Cl)c2Cl)ccc1CNC[C@@H]1CCC(=O)N1 [Compound 96, (S)-5-(((4-(3-chloro-4-(2-chloro-3-(3-(((4,4-difluorocyclohexyl)amino)methyl)-1-methyl-1H-pyrrolo[2,3-b]pyridin-6-yl)phenyl)pyridin-2-yl)-2-methoxybenzyl)amino)methyl)pyrrolidin-2-one]
IC50 [1]: 0.6 nM | EC50 (human PD-L1): 230 nM

COc1cc(-c2nccc(-c3cccc(-c4ccc(CNC[C@@H]5CCC(=O)N5)c(OC)n4)c3Cl)c2Cl)ccc1C1=NCCN1 [Compound 179, (S)-5-((((6-(2-chloro-3-(3-chloro-2-(4-(4,5-dihydro-1H-imidazol-2-yl)-3-methoxyphenyl)pyridine-4-yl)phenyl)-2-methoxypyridin-3-yl)methyl)amino)methyl)pyridine1334ne-2-one]
IC50 [1]: 2.45 nM | EC50 (human PD-L1): 30.8 nM

COc1cc(-c2nccc(-c3cccc(-c4ccc(CNC5CCOCC5)c(OC)n4)c3Cl)c2Cl)ccc1CN1CC2(CCOCC2)C1 [Example 530, N-((6-(3-(2-(4-((7-Oxa-2-azaspiro[3.5]nonan-2-yl)methyl)-3-methoxyphenyl)-3-chloropyridin-4-yl)-2-chlorophenyl)-2-methoxypyridin-3-yl)methyl)tetrahydro-2H-pyran-4-amine]
IC50 [1]: 2.51 nM | EC50 (human PD-L1): 39.5 nM

COc1nc(-c2cccc(-c3ccnc(-c4cc(OC)c5nc(CNC6CCN(C(C)=O)CC6)cn5c4)c3Cl)c2Cl)ccc1CNC[C@@H]1CCC(=O)N1 [Example 318, (S)-5-((((6-(3-(2-(2-(((1-Acetylpiperidin-4-yl)amino)methyl)-8-methoxyimidazo[1,2-a]pyridin-6-yl)-3-chloropyridin-4-yl)-2-chlorophenyl)-2-methoxypyridin-3-yl)methyl)amino)methyl)pyrrolidin-2-one]
IC50 [1]: 1.8 nM | EC50 (human PD-L1): 31.5 nM

COc1nc(-c2cccc(-c3ccnc(-c4ccc(CN5CC6(CNC(=O)C6)C5)c(OC(F)F)c4)c3Cl)c2Cl)ccc1CNC1CCOCC1 [Example 683, 2-(4-(3-Chloro-4-(2-chloro-3-(6-methoxy-5-(((tetrahydro-2H-pyran-4-yl)amino)methyl)pyridin-2-yl)phenyl)pyridin-2-yl)-2-(difluoromethoxy)benzyl)-2,6-diazaspiro[3.4]octan-7-one]
IC50 [1]: 0.29 nM | EC50 (human PD-L1): 25.9 nM

COCCC(=O)N1CC2(CN(Cc3ccc(-c4nccc(-c5cccc(-c6ccc(CN7CC8(C7)CN(C(=O)CCOC)C8)c(OC)n6)c5Cl)c4Cl)cc3OC)C2)C1 [Example 679, 1-(6-((6-(2-Chloro-3-(3-chloro-2-(3-methoxy-4-((6-(3-methoxypropanoyl)-2,6-diazaspiro[3.3]heptan-2-yl)methyl)phenyl)pyridin-4-yl)phenyl)-2-methoxypyridin-3-yl)methyl)-2,6-diazaspiro[3.3]heptan-2-yl)-3-methoxypropan-1-one]
IC50 [1]: 0.16 nM | EC50 (human PD-L1): 30.5 nM

COc1cc(-c2nccc(-c3cccc(-c4ccc(CN[C@H]5C[C@](C)(O)C5)c(OC)n4)c3Cl)c2Cl)ccc1CN1CC2(CNC(=O)C2)C1 [Example 517, 2-(4-(3-Chloro-4-(2-chloro-3-(5-((((1r,3r)-3-hydroxy-3-methylcyclobutyl)-amino)methyl)-6-methoxypyridin-2-yl)phenyl)pyridin-2-yl)-2-methoxybenzyl)-2,6-diazaspiro[3.4]octan-7-one]
IC50 [1]: 1.55 nM | EC50 (human PD-L1): 17 nM

COc1nc(-c2cccc(-c3ccnc(-c4cc(OC)c5nc(CN6CC7(CC(O)C7)C6)nn5c4)c3Cl)c2Cl)ccc1CNC(C)C [Compound 753, 2-((6-(3-Chloro-4-(2-chloro-3-(5-((isopropylamino)methyl)-6-methoxypyridin-2-yl)phenyl)pyridin-2-yl)-8-methoxy-[1,2,4]triazolo[1,5-a]pyridin-2-yl)methyl)-2-azaspiro[3.3]heptan-6-ol]
IC50 [1]: 0.2 nM | EC50 (human PD-L1): 87 nM

COc1cc(-c2nccc(-c3cccc(-c4ccc(CNC5CCN(C(=O)c6ccccc6)CC5)c(OC)n4)c3Cl)c2Cl)ccc1CNC1CCN(C(=O)c2ccccc2)CC1 [Example 422, (4-(((6-(3-(2-(4-(((1-Benzoylpiperidin-4-yl)amino)methyl)-3-methoxyphenyl)-3-chloropyridin-4-yl)-2-chlorophenyl)-2-methoxypyridin-3-yl)methyl)amino)piperidin-1-yl)(phenyl)methanone]
IC50 [1]: 0.9 nM | EC50 (human PD-L1): 75.5 nM

CNCc1ccc(-c2cccc(-c3ccnc(-c4ccc(CNCCC(=O)OC(C)C)c(OC)c4)c3Cl)c2Cl)nc1OC [Example 279, Isopropyl 3-((4-(3-chloro-4-(2-chloro-3-(6-methoxy-5-((methylamino)methyl)pyridin-2-yl)phenyl)pyridin-2-yl)-2-methoxybenzyl)amino)propanoate]
IC50 [1]: 12.4 nM | EC50 (human PD-L1): 224 nM

COC(=O)[C@H](CCO)NCc1ncc(-c2nccc(-c3cccc(-c4ccc(CNC[C@@H]5CCC(=O)N5)c(OC)n4)c3Cl)c2Cl)cc1OC [Compound 267, Methyl ((3-chloro-4-(2-chloro-3-(6-methoxy-5-(((((S)-5-oxopyrrolidin-2-yl)methyl)amino)methyl)pyridin-2-yl)phenyl)-5′-methoxy-[2,3′-bipyridin]-6′-yl)methyl)-L-homoserinate]
IC50 [1]: 2.97 nM | EC50 (human PD-L1): 639 nM

COc1nc(-c2ccnc(-c3cccc4c3CC[C@@H]4Nc3nc(OC)c(CN4CC5(C4)CN(C(C)=O)C5)nc3C(F)(F)F)c2Cl)ccc1CN1CC2(C1)CN(C(C)=O)C2 [Example 305, (S)-1-(6-((5-((4-(5-((6-Acetyl-2,6-diazaspiro[3.3]heptan-2-yl)methyl)-3′-chloro-6-methoxy-[2,4′-bipyridin]-2′-yl)-2,3-dihydro-1H-inden-1-yl)amino)-3-methoxy-6-(trifluoromethyl)pyrazin-2-yl)methyl)-2,6-diazaspiro[3.3]heptan-2-yl)ethan-1-one]
IC50 [1]: 4.96 nM | EC50 (human PD-L1): ≥ 10000 nM

CCOc1cc(-c2nccc(-c3cccc(-c4ccc(CNC5CCN(C(C)=O)CC5)c(OC)n4)c3Cl)c2Cl)cn2nc(CN[C@H]3C[C@](C)(O)C3)nc12 [Example 584, 1-(4-(((6-(2-Chloro-3-(3-chloro-2-(8-ethoxy-2-((((1r,3r)-3-hydroxy-3-methylcyclobutyl)amino)methyl)-[1,2,4]triazolo[1,5-a]pyridin-6-yl)pyridin-4-yl)phenyl)-2-methoxypyridin-3-yl)methyl)amino)piperidin-1-yl)ethan-1-one]
IC50 [1]: 2.21 nM | EC50 (human PD-L1): ≥ 10000 nM

2-(4-(3-Chloro-4-(2-chloro-3-(5-methoxy-6-((7-oxo-2,6-diazaspiro[3.4]octan-2-yl)methyl)pyridin-3-yl)phenyl)pyridin-2-yl)-2-methoxybenzyl)-2,6-diazaspiro[3.4]octan-7-one [Example 566]
IC50 [1]: 0.93 nM | EC50 (human PD-L1): 341 nM

COc1cc(-c2nccc(-c3cccc(-c4ccc(CNC[C@@H]5CCC(=O)N5)c(OC)n4)c3Cl)c2Cl)cc(F)c1CNC1CCN(C(C)=O)CC1 [Compound 148, (S)-5-((((6-(3-(2-(4-(((1-acetylpiperidin-4-yl)amino)methyl)-3-fluoro-5-methoxyphenyl)-3-chloropyridin-4-yl)-2-chlorophenyl)-2-methoxypyridin-3-yl)methyl)amino)methyl)pyrrolidin-2-one]
IC50 [1]: 1.11 nM | EC50 (human PD-L1): 19.5 nM
